This is an account of results in patent US20240270762A1, “PENICILLIN-BINDING PROTEIN INHIBITORS” (priority 2021, published 2024).

In brackets after ≈: the same amount, converted by molar mass. A value given as a limit tells only on which side of the number the result lay.

The target in one test is A. baumannii PBP2 (Acinetobacter baumannii, UniProt D0C8Z9). In words: Bocillin-FL competition binding via gel filtration, A. baumannii PBP2. In outline:
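Enzyme was pre-incubated with rising inhibitor concentrations, then Bocillin-FL was added and incubated 15 minutes more. Bound probe was separated by gel filtration and fluorescence read. EC50 came from fitting fraction of PBP labelled versus inhibitor concentration to a Hill equation with ymin, ymax and n.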

The next test has as its system B. pseudomallei Bp82. In words: microbe, parasite or virus in culture. The format is cell-based. As to conditions: Burkholderia pseudomallei, BP82, read-out: Minimum inhibitory concentration, B. pseudomallei Bp82.
The next test relates to P. aeruginosa CDC-0054. In words: microbe, parasite or virus in culture. The format is cell-based. The conditions noted are these: Pseudomonas aeruginosa, CDC0054, read-out: Minimum inhibitory concentration, P. aeruginosa CDC-0054.
In the next test the test system is A. baumannii CDC-0036. In words: microbe, parasite or virus in culture. Type of test: cell-based. The conditions noted are these: Acinetobacter baumannii, CDC0036, read-out: Minimum inhibitory concentration (MIC), A. baumannii CDC-0036.
The subject of another test is P. aeruginosa CDC-0110. In words: microbe, parasite or virus in culture. Type of test: cell-based. As to conditions: Pseudomonas aeruginosa, CDC0110, read-out: Minimum inhibitory concentration, P. aeruginosa CDC-0110.

Sequence of A. baumannii PBP2 (D0C8Z9 whole entry): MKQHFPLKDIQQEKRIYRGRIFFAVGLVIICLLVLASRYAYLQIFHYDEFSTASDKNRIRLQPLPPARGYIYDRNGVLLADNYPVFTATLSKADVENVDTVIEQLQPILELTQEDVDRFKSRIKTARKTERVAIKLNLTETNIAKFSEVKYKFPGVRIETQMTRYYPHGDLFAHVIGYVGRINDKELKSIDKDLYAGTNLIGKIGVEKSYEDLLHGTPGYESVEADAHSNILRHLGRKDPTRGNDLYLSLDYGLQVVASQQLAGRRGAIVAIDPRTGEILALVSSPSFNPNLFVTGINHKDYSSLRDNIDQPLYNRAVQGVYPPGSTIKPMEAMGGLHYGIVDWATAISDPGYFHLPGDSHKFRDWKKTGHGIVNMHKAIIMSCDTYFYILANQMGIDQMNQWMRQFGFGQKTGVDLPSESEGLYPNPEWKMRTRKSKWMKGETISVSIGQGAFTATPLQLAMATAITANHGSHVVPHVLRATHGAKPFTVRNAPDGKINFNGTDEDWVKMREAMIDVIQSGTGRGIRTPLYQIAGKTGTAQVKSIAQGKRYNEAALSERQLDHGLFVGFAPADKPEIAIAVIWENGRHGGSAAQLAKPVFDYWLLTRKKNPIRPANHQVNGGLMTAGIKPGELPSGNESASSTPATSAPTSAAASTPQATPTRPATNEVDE

For `O=C(O)c1c(F)ccc2c1OB(O)[C@@H](NC(=O)[C@H](NC(=O)N1CCN(C3CCN(C(=O)c4cc(F)c(O)c(O)c4Cl)CC3)C1=O)c1ccc(P(=O)(O)O)cc1)C2` (single isomer, unassigned) [Example 495], the 50% effective concentration (EC50) on A. baumannii PBP2 is less than 10 µM. Further, the MIC in the test with B. pseudomallei Bp82, in the test with P. aeruginosa CDC-0054, with A. baumannii CDC-0036 and in the test on P. aeruginosa CDC-0110 was less than 1 µg/mL throughout.

Turning to `O=C(O)c1c(F)ccc2c1OB(O)[C@@H](NC(=O)[C@H](NC(=O)N1CCN(C3CCN(C(=O)Nc4ccc(O)c(O)c4Cl)CC3)C1=O)c1ccc(P(=O)(O)O)cc1)C2` (single isomer, unassigned) [Example 497], the EC50 at A. baumannii PBP2 was less than 10 µM. For the same molecule, the MIC in the test on B. pseudomallei Bp82, with P. aeruginosa CDC-0054, in the test on A. baumannii CDC-0036 and in the test with P. aeruginosa CDC-0110 was less than 1 µg/mL throughout.

`O=C(O)c1c(F)ccc2c1OB(O)[C@@H](NC(=O)[C@H](NC(=O)N1CCN(C3CCN(C(=O)Nc4cc(F)c(O)c(O)c4Cl)CC3)C1=O)c1ccc(P(=O)(O)O)cc1)C2` (single isomer, unassigned) [Example 500]: the EC50 at A. baumannii PBP2 was less than 10 µM. The MIC with B. pseudomallei Bp82, with P. aeruginosa CDC-0054, in the test with A. baumannii CDC-0036 and with P. aeruginosa CDC-0110 was less than 1 µg/mL each time.

`O=C(O)c1c(F)ccc2c1OB(O)[C@@H](NC(=O)[C@H](NC(=O)N1CCN(C3CCN(Cc4cccnc4)CC3)C1=O)c1cc(F)c(O)c(O)c1Cl)C2` [Example 492, (R)-3-((R)-2-(2-chloro-5-fluoro-3,4-dihydroxyphenyl)-2-(2-oxo-3-(1-(pyridin-3-ylmethyl)piperidin-4-yl)imidazolidine-1-carboxamido)acetamido)-7-fluoro-2-hydroxy-3,4-dihydro-2H-benzo[e][1,2]oxaborinine-8-carboxylic acid] displayed an EC50 at A. baumannii PBP2 of 10 to 50 µM. In addition, the MIC was less than 1 µg/mL in the test with P. aeruginosa CDC-0054, 2 to 4 µg/mL (≈ 2.74 to 5.49 µM) with A. baumannii CDC-0036 and less than 1 µg/mL in the test with P. aeruginosa CDC-0110.

Consider `O=C(O)c1c(F)ccc2c1OB(O)[C@@H](NC(=O)[C@H](NC(=O)N1CCN(C3CCN(Cc4ccncc4)CC3)C1=O)c1cc(F)c(O)c(O)c1Cl)C2` [Example 493, (R)-3-((R)-2-(2-chloro-5-fluoro-3,4-dihydroxyphenyl)-2-(2-oxo-3-(1-(pyridin-4-ylmethyl)piperidin-4-yl)imidazolidine-1-carboxamido)acetamido)-7-fluoro-2-hydroxy-3,4-dihydro-2H-benzo[e][1,2]oxaborinine-8-carboxylic acid], for which the EC50 on A. baumannii PBP2 lay within 10 to 50 µM. Also, the MIC in the test with P. aeruginosa CDC-0054 was 2 to 4 µg/mL (≈ 2.74 to 5.49 µM); with A. baumannii CDC-0036, less than 1 µg/mL; with P. aeruginosa CDC-0110 it was less than 1 µg/mL.

As for `O=C(O)c1c(F)ccc2c1OB(O)[C@@H](NC(=O)[C@H](NC(=O)N1CCN(C3CCN(C(=O)c4ccc(O)c(O)c4Cl)CC3)C1=O)c1ccc(P(=O)(O)O)cc1)C2` [Example 494, (R)-3-((R)-2-(3-(1-(2-chloro-3,4-dihydroxybenzoyl)piperidin-4-yl)-2-oxoimidazolidine-1-carboxamido)-2-(4-phosphonophenyl)acetamido)-7-fluoro-2-hydroxy-3,4-dihydro-2H-benzo[e][1,2]oxaborinine-8-carboxylic acid], at A. baumannii PBP2, the EC50 was in the range of 10 to 50 µM. For the same molecule, the MIC in the test on B. pseudomallei Bp82, in the test with P. aeruginosa CDC-0054, with A. baumannii CDC-0036 and in the test on P. aeruginosa CDC-0110 was less than 1 µg/mL each time.

For `O=C(O)c1c(F)ccc2c1OB(O)[C@@H](NC(=O)[C@H](NC(=O)N1CCN(C3CCN(C(=O)c4cc(O)c(O)c(Cl)c4)CC3)C1=O)c1ccc(P(=O)(O)O)cc1)C2` [Example 496, (R)-3-((R)-2-(3-(1-(3-chloro-4,5-dihydroxybenzoyl)piperidin-4-yl)-2-oxoimidazolidine-1-carboxamido)-2-(4-phosphonophenyl)acetamido)-7-fluoro-2-hydroxy-3,4-dihydro-2H-benzo[e][1,2]oxaborinine-8-carboxylic acid], the EC50 at A. baumannii PBP2 was less than 10 µM. In addition, the MIC in the test on B. pseudomallei Bp82, in the test on P. aeruginosa CDC-0054, in the test with A. baumannii CDC-0036 and in the test with P. aeruginosa CDC-0110 was less than 1 µg/mL throughout.

In turn, `O=C(O)c1c(F)ccc2c1OB(O)[C@@H](NC(=O)[C@H](NC(=O)N1CCN(Cc3ccc(O)c(O)c3Cl)C(=O)C1=O)c1cc(F)c(P(=O)(O)O)c(F)c1)C2` [Example 502, (R)-3-((R)-2-(4-(2-chloro-3,4-dihydroxybenzyl)-2,3-dioxopiperazine-1-carboxamido)-2-(3,5-difluoro-4-phosphonophenyl)acetamido)-7-fluoro-2-hydroxy-3,4-dihydro-2H-benzo[e][1,2]oxaborinine-8-carboxylic acid] returned an EC50 at A. baumannii PBP2 of less than 10 µM. Also, the MIC in the test on B. pseudomallei Bp82, in the test on P. aeruginosa CDC-0054, in the test on A. baumannii CDC-0036 and in the test with P. aeruginosa CDC-0110 was less than 1 µg/mL each time.

Turning to `O=C(NCCN1CCN(C(=O)N[C@@H](C(=O)N[C@H]2Cc3ccc(F)c(C(=O)O)c3OB2O)c2ccc(P(=O)(O)O)cc2)C(=O)C1=O)c1ccc(O)c(O)c1Cl` [Example 503, (R)-3-((R)-2-(4-(2-(2-chloro-3,4-dihydroxybenzamido)ethyl)-2,3-dioxopiperazine-1-carboxamido)-2-(4-phosphonophenyl)acetamido)-7-fluoro-2-hydroxy-3,4-dihydro-2H-benzo[e][1,2]oxaborinine-8-carboxylic acid], at A. baumannii PBP2, the EC50 was 10 to 50 µM. Besides, the MIC is less than 1 µg/mL with B. pseudomallei Bp82, less than 1 µg/mL with P. aeruginosa CDC-0054, 2 to 4 µg/mL (≈ 2.53 to 5.05 µM) in the test on A. baumannii CDC-0036 and less than 1 µg/mL with P. aeruginosa CDC-0110.

`O=C(O)c1cccc2c1OB(O)[C@@H](NC(=O)[C@H](NC(=O)N1CCN(Cc3cc(F)c(O)c(O)c3Cl)C(=O)C1=O)c1ccc(P(=O)(O)O)cc1)C2` [Example 504, (R)-3-((R)-2-(4-(2-chloro-5-fluoro-3,4-dihydroxybenzyl)-2,3-dioxopiperazine-1-carboxamido)-2-(4-phosphonophenyl)acetamido)-2-hydroxy-3,4-dihydro-2H-benzo[e][1,2]oxaborinine-8-carboxylic acid] had an EC50 on A. baumannii PBP2 of less than 10 µM. Besides, the MIC in the test with P. aeruginosa CDC-0054, with A. baumannii CDC-0036 and in the test with P. aeruginosa CDC-0110 was less than 1 µg/mL each time.

`O=C(O)c1c(F)ccc2c1OB(O)[C@@H](NC(=O)C(NC(=O)N1CCN(S(=O)(=O)c3ccc(O)c(O)c3Cl)C1=O)c1ccc(P(=O)(O)O)cc1)C2` (stereo partly drawn) [Example 505, (3R)-3-(2-(3-((2-chloro-3,4-dihydroxyphenyl)sulfonyl)-2-oxoimidazolidine-1-carboxamido)-2-(4-phosphonophenyl)acetamido)-7-fluoro-2-hydroxy-3,4-dihydro-2H-benzo[e][1,2]oxaborinine-8-carboxylic acid] had an EC50 at A. baumannii PBP2 of less than 10 µM. Moreover, the MIC in the test on B. pseudomallei Bp82, with P. aeruginosa CDC-0054, with A. baumannii CDC-0036 and with P. aeruginosa CDC-0110 was less than 1 µg/mL in each case.

For `O=C(O)c1c(F)ccc2c1OB(O)[C@@H](NC(=O)[C@H](NC(=O)N1CCN(S(=O)(=O)c3ccc(O)c(O)c3Cl)C1=O)c1ccc(P(=O)(O)O)cc1)C2` [Example 506, (R)-3-((R)-2-(3-((2-chloro-3,4-dihydroxyphenyl)sulfonyl)-2-oxoimidazolidine-1-carboxamido)-2-(4-phosphonophenyl)acetamido)-7-fluoro-2-hydroxy-3,4-dihydro-2H-benzo[e][1,2]oxaborinine-8-carboxylic acid], the MIC in the test on B. pseudomallei Bp82, in the test with P. aeruginosa CDC-0054, with A. baumannii CDC-0036 and in the test with P. aeruginosa CDC-0110 was less than 1 µg/mL each time.

In the case of `O=C(O)c1cccc2c1OB(O)[C@@H](NC(=O)[C@H](NC(=O)N1CCN(S(=O)(=O)c3ccc(O)c(O)c3Cl)C1=O)c1ccc(P(=O)(O)O)cc1)C2` [Example 509, (R)-3-((R)-2-(3-((2-chloro-3,4-dihydroxyphenyl)sulfonyl)-2-oxoimidazolidine-1-carboxamido)-2-(4-phosphonophenyl)acetamido)-2-hydroxy-3,4-dihydro-2H-benzo[e][1,2]oxaborinine-8-carboxylic acid], the MIC in the test on B. pseudomallei Bp82, with P. aeruginosa CDC-0054, in the test on A. baumannii CDC-0036 and in the test on P. aeruginosa CDC-0110 was less than 1 µg/mL throughout.
